PMC5287478, “Quantitative Affinity Determination by Fluorescence Anisotropy Measurements of Individual Nanoliter Droplets” (Analytical Chemistry, 2017)
pKd: −log10 of the molar value.

What was measured:
HumRadA18 = biological target: T1, HumRadA18 (Pyrococcus furiosus, UniProt O74036, D220A/D267M/E219S/H199N/H264F/I169M/I200V/I222M/K198D/K221M/K223V/K263R/L213Q/L225S/L274E/Q216Y/V168A/V202Y/V215L/V232Y/W170Y/Y201A/Y275F); test: Competition assay with BRC4^fl in nanoliter droplets; type: binding
T1 construct: made in house; host or cells: E. coli BL21(DE3) pUBS520, pBAT plasmid

[1] = Retention of BRC4fl in droplets (leakage into oil phase); type: physicochemical; details: HFE 7500 with 1% w/v AZ2C fluorosurfactant, approx. 1 minute to detection point
Description: AZ2C fluoroLsurfactant (made inLhouse according to a previously published method).4 The time to reach the detection point (approx. 1 minute) was sufficient for significant leakage of BRC4fl from the droplet. Addition of additives such as BSA has been found effective in increasing the effective solubility of reagents.5 BSA was titrated using the same droplet titration technique up to 1.2%. The fluorescence intensity measured at the detection point was […]
increase retention of the fluorophore in the droplet. Anisotropy reached a steadyLstate value when BSA was present at concentrations above 0.2%. Although the linear increase of […]
presence of BSA concentrations above 1% made droplet formation more difficult, because of the increased viscosity of the aqueous phase and the formation of BSA vesicles. Therefore 1% BSA was chosen as a compromise between these effects and all experiments were […]
Figure S4. Influence of BSA concentration on the retention of BRC4fl within the droplet. (A) Intensity is linearly increasing with BSA concentration. (B) Fluorescence anisotropy converges towards a steadyLstate value above a threshold concentration of BSA

RAD51 = details: 30–35 amino acid peptide corresponding to BRC repeat 4; cited from earlier work
Description: We explore the potential of single droplet anisotropy measurements for the study of structure–activity relationships for protein–protein interactions in nanoliter volumes. Specifically, we address the interactions of the BRC4 peptide, a reductionist model of the recombination mediator BRCA2, with mutants of an archaeal surrogate of the recombinase RAD51.[10] […] Inhibit ...

CC[C@H](C)[C@H](NC(=O)[C@H](CCCCN)NC(=O)[C@@H](NC(=O)[C@H](CCCCN)NC(=O)[C@H](CCCCN)NC(=O)CNC(=O)[C@H](CO)NC(=O)[C@H](C)NC(=O)[C@@H](NC(=O)[C@H](Cc1c[nH]cn1)NC(=O)[C@H](Cc1ccccc1)NC(=O)CNC(=O)[C@H](CC(C)C)NC(=O)[C@H](CC(C)C)NC(=O)[C@@H](NC(=O)[C@@H]1CCCN1C(=O)[C@H](CCC(=O)O)NC(=O)[C@H](CCCCN)NC(=O)[C@H](CSC1CC(=O)N(c2ccc3c(c2)C(=O)OC32c3ccc(O)cc3Oc3cc(O)ccc32)C1=O)NC(C)=O)[C@@H](C)O)[C@@H](C)O)C(C)C)C(=O)N[C@@H](C)C(=O)N[C@@H](CCCCN)C(=O)N[C@@H](CCC(=O)O)C(=O)N[C@@H](CO)C(=O)N[C@@H](CC(C)C)C(=O)N[C@@H](CC(=O)O)C(=O)N[C@@H](CCCCN)C(=O)N[C@H](C(=O)N[C@@H](CCCCN)C(=O)N[C@@H](CC(N)=O)C(=O)N[C@@H](CC(C)C)C(=O)N[C@@H](Cc1ccccc1)C(=O)N[C@@H](CC(=O)O)C(=O)N[C@@H](CCC(=O)O)C(=O)N[C@@H](CCCCN)C(=O)N[C@@H](CCC(=O)O)C(=O)N[C@@H](CCC(N)=O)C(N)=O)C(C)C (stereo partly drawn) [BRC4]
pKd (HumRadA18): 7.35 | leakage from droplet [1]: high propensity for leakage | RAD51 activity (RAD51): block RAD51 activity
